According to US20220160842A1, “METHOD OF TREATING INFECTIVE ENDOCARDITIS” (priority 2019, published 2022):
Converted amounts (≈) assume the structure as drawn. Marks after values point to notes of the source that are not given here.

How the values were obtained:
[1] = test system: MRSA strain MW2; experiment: Infective endocarditis rabbit model, CF-301 in series with daptomycin (Example 2); format: in vivo, rabbits; conditions: daptomycin alone 4 mg/kg intravenously
Description: The rational for selection of the daptomycin dose is as follows. Daptomycin pilot dose-response experiments were performed over a range from 1 mg/kg to 10 mg/kg, administered intravenously, once daily for 4 days in the infective endocarditis rabbit model described below, which was caused by the MRSA strain, MW2. FIG. 2 depicts data for individual animals, plotted as treatment regimen versus log10 CFU/g tissue (mean±SEM are shown). From these studies, a daptomycin dose-response was defined. […] In the rabbit infective endocarditis model, a daptomycin-alone dose of 4 mg/kg administered intravenously provided about 0.25 to 1.45 log10 reduction in bacterial burden compared to vehicle-treated controls.
A well-described indwelling transcarotid artery-to-left ventricle catheter-induced model of aortic valve infective endocarditis was used in rabbits. See Xiong et al., 2011, AAC, 55:P5325-5330. At 48 hours after catheter placement, infective endocarditis was induced by intravenous inoculums of about 2×10^5 CFU (the induction of ID95 of MRSA strain MW2 in this model). […] Daptomycin administration was continued once a day for 4 days. At 24 hours after the last dose of daptomycin, animals were humanely euthanized and cardiac vegetations, kidneys, and spleens were sterilely removed and quantitatively cultured. Bacterial density for each organ for the different treatment groups were calculated as mean log10 CFU/g of tissue (±95% confidence interval).

[2] = test system: S. aureus (MSSA); experiment: MIC by broth microdilution; format: cell-based, Staphylococcus aureus; conditions: S. aureus (MSSA), N=73
Description: (§1) Minimal inhibitory concentrations (MICs) of exebacase against staphylococci were determined by broth microdilution (BMD) using a nonstandard antimicrobial susceptibility testing (AST) medium comprised of cation-adjusted Mueller Hinton broth (caMHB) supplemented with horse serum (Sigma Aldrich) and dithiothreitol (DTT; Sigma Aldrich) to final concentrations of 25% and 0.5 mM, respectively. This medium, referred to as caMHB-HSD, is approved for use in exebacase AST by the Clinical and Laboratory Standards Institute (CLSI) (CLSI. 2017, Jan. 16-17. AST Subcommittee Working Group Meetings and Plenary. AST Meeting Files & Resources, clsi.org/education/microbiology/ast/ast-meeting-files-resources/. Additional supplementation with 2.5% lysed red blood cells (Remel™, ThermoFisher) was included for analyses of streptococcal isolates, as recommended by CLSI. See CLSI, 2015. Methods for Dilution Antimicrobial Susceptibility Tests for Bacteria That Grow Aerobically, 10th Edition. Clinical and Laboratory Standards Institute, Wayne, Pa.
(§2) Daptomycin (Sigma Aldrich) and vancomycin hydrochloride (Sigma Aldrich) were tested following the reference BMD method for each. See CLSI. 2015. Methods for Dilution Antimicrobial Susceptibility Tests for Bacteria That Grow Aerobically, 10th Edition. Clinical and Laboratory Standards Institute, Wayne, Pa.

[3] = test system: S. aureus (MRSA); experiment: MIC by broth microdilution; format: cell-based, Staphylococcus aureus; conditions: S. aureus (MRSA), N=74
Description: as §1, §2

[4] = test system: S. pyogenes; experiment: MIC by broth microdilution; format: cell-based, Streptococcus pyogenes; conditions: S. pyogenes (group A), N=100
Description: as §1, §2

[5] = test system: S. sanguinis; experiment: MIC by broth microdilution; format: cell-based, Streptococcus sanguinis; conditions: S. sanguinis (viridans), N=15
Description: as §1, §2

[6] = test system: S. dysgalactiae; experiment: MIC by broth microdilution; format: cell-based, Streptococcus dysgalactiae; conditions: S. dysgalactiae (group G), N=22
Description: as §1, §2

[7] = test system: S. anginosus; experiment: MIC by broth microdilution; format: cell-based, Streptococcus anginosus; conditions: S. anginosus (viridans), N=10
Description: as §1, §2

[8] = test system: S. agalactiae; experiment: MIC by broth microdilution; format: cell-based, Streptococcus agalactiae; conditions: S. agalactiae (group B), N=97
Description: as §1, §2

[9] = test system: S. gallolyticus; experiment: MIC by broth microdilution; format: cell-based, Streptococcus gallolyticus; conditions: S. gallolyticus (bovis), N=19
Description: as §1, §2

[10] = test system: S. warneri; experiment: MIC by broth microdilution; format: cell-based, Staphylococcus warneri; conditions: S. warneri, N=23
Description: as §1, §2

[11] = test system: S. mitis; experiment: MIC by broth microdilution; format: cell-based, Streptococcus mitis; conditions: S. mitis (viridans), N=18
Description: as §1, §2

[12] = test system: S. pneumoniae; experiment: MIC by broth microdilution; format: cell-based, Streptococcus pneumoniae; conditions: S. pneumoniae, N=59
Description: as §1, §2

[13] = test system: S. lugdunensis; experiment: MIC by broth microdilution; format: cell-based, Staphylococcus lugdunensis; conditions: S. lugdunensis, N=49
Description: as §1, §2

[14] = test system: MRSA strain MW2; experiment: Left-sided catheter-induced IE model due to MRSA, CF-301 dose strategies plus DAP (Example 4); format: in vivo, rabbits
Description: Briefly, female New Zealand White rabbits (Harlan Laboratories; 2.3 to 2.5 kg body weight) underwent transcarotid-transaortic valve catheterization, and IE was induced by IV infection of ˜1-2×10^5 cfu of MW2 at 48 hours (h) after catheterization. […] See also FIG. 4.
On day 5, animals were sacrificed, and target tissues (cardiac vegetations, kidney and spleen) were removed and quantitatively cultured. Tissue MRSA counts are given as the mean log10 CFU/g of tissue±SD).
A two-tailed Student's t test was used to analyze the tissue MRSA counts between different groups. P values <0.05 were considered significant. No adjustment was made for all the P values reported in this study.

[15] = Staphylococcus aureus, read-out: MIC50
[16] = Staphylococcus aureus, read-out: MIC90

- MIC Range [2]: 0.125 to 0.5 µg/mL
- MIC50 [2, 15]: 0.25 µg/mL (≈ 0.154 µM)
- MIC90 [2, 16]: 0.25 µg/mL (≈ 0.154 µM)
- MIC Range [3]: 0.125 to 1 µg/mL
- MIC50 [3, 15]: 0.25 µg/mL (≈ 0.154 µM)
- MIC90 [3, 16]: 0.5 µg/mL (≈ 0.309 µM)
- MIC Range [4]: 0.016 to 0.06 µg/mL
- MIC50 ([4]; Streptococcus pyogenes, read-out: MIC50): 0.03 µg/mL (≈ 0.0185 µM)
- MIC90 ([4]; Streptococcus pyogenes, read-out: MIC90): 0.06 µg/mL (≈ 0.037 µM)
- MIC Range [5]: 0.06 to 1 µg/mL
- MIC50 ([5]; Streptococcus sanguinis, read-out: MIC50): 0.25 µg/mL (≈ 0.154 µM)
- MIC90 ([5]; Streptococcus sanguinis, read-out: MIC90): 1 µg/mL (≈ 0.617 µM)
- MIC Range [6]: 0.06 to 0.5 µg/mL
- MIC50 ([6]; Streptococcus dysgalactiae, read-out: MIC50): 0.125 µg/mL (≈ 0.0771 µM)
- MIC90 ([6]; Streptococcus dysgalactiae, read-out: MIC90): 0.25 µg/mL (≈ 0.154 µM)
- MIC Range [7]: 0.25 to 0.5 µg/mL
- MIC50 ([7]; Streptococcus anginosus, read-out: MIC50): 0.5 µg/mL (≈ 0.309 µM)
- MIC90 ([7]; Streptococcus anginosus, read-out: MIC90): 0.5 µg/mL (≈ 0.309 µM)
- MIC Range [8]: 0.125 to 0.25 µg/mL
- MIC50 ([8]; Streptococcus agalactiae, read-out: MIC50): 0.125 µg/mL (≈ 0.0771 µM)
- MIC90 ([8]; Streptococcus agalactiae, read-out: MIC90): 0.25 µg/mL (≈ 0.154 µM)
- MIC Range [9]: 0.06 to 0.5 µg/mL
- MIC50 ([9]; Streptococcus gallolyticus, read-out: MIC50): 0.125 µg/mL (≈ 0.0771 µM)
- MIC90 ([9]; Streptococcus gallolyticus, read-out: MIC90): 0.25 µg/mL (≈ 0.154 µM)
- MIC Range [10]: 0.25 to 2 µg/mL
- MIC50 ([10]; Staphylococcus warneri, read-out: MIC50): 0.5 µg/mL (≈ 0.309 µM)
- MIC90 ([10]; Staphylococcus warneri, read-out: MIC90): 2 µg/mL (≈ 1.23 µM)
- MIC Range [11]: 0.125 to 1 µg/mL
- MIC50 ([11]; Streptococcus mitis, read-out: MIC50): 0.5 µg/mL (≈ 0.309 µM)
- MIC90 ([11]; Streptococcus mitis, read-out: MIC90): 1 µg/mL (≈ 0.617 µM)
- MIC Range [12]: 0.06 to 0.25 µg/mL
- MIC50 ([12]; Streptococcus pneumoniae, read-out: MIC50): 0.125 µg/mL (≈ 0.0771 µM)
- MIC90 ([12]; Streptococcus pneumoniae, read-out: MIC90): 0.5 µg/mL (≈ 0.309 µM)
- MIC Range [13]: 0.25 to 2 µg/mL
- MIC50 ([13]; Staphylococcus lugdunensis, read-out: MIC50): 0.5 µg/mL (≈ 0.309 µM)
- MIC90 ([13]; Staphylococcus lugdunensis, read-out: MIC90): 1 µg/mL (≈ 0.617 µM)
Compound: CCCCCCCCCC(=O)N[C@@H](Cc1c[nH]c2ccccc12)C(=O)N[C@H](CC(N)=O)C(=O)N[C@@H](CC(=O)O)C(=O)N[C@@H]1C(=O)NCC(=O)N[C@@H](CCCN)C(=O)N[C@@H](CC(=O)O)C(=O)N[C@H](C)C(=O)N[C@@H](CC(=O)O)C(=O)NCC(=O)N[C@H](CO)C(=O)N[C@@H]([C@H](C)CC(=O)O)C(=O)N[C@@H](CC(=O)c2ccccc2N)C(=O)O[C@@H]1C [DAP, Daptomycin]
- bacterial burden remaining in treated animals [1]: 5-7 log10
- reduction in bacterial burden compared to vehicle-treated controls ([1]; once daily for 4 days, pilot dose-response): 0.25 to 1.45 log10
- MRSA density, Mean Log10 CFU/g tissue ± SD, Kidneys ([14]; DAP alone 4 mg/kg QD): 4.62 ± 1.16^a Log10 CFU/g tissue
- MRSA density, Mean Log10 CFU/g tissue ± SD, Spleen ([14]; DAP alone 4 mg/kg QD): 4.04 ± 0.87^a Log10 CFU/g tissue
- reduction in MRSA densities in all three target tissues vs vehicle controls ([14]; DAP alone 4 mg/kg iv QD x 4 day): 2-3 log10 cfu/g
